Experimental data published in EP0440324B1, “Substituted beta-diketones and their use in the treatment of inflammatory bowel disease” (ORION-YHTYMÄ OY, priority 1990, dated 1991).

Test system: TNB-induced chronic colitis
Assay: TNB-induced chronic colitis in the rat (damage score of the colon)
Assay type: in vivo, Wistar rats
Conditions: damage score of chronic inflammation induced by TNB, colons scored 96 h after TNB
Method: 20 mg of TNB (2,4,6-trinitrobenzenesulfonic acid) in 50 % ethanol was administered into the lumen of the colon via a rubber catheter inserted rectally to Wistar rats. The test compounds were given rectally 1 h prior and 24, 48, 72 and 95 h after TNB. The rats were sacrificed 96 h after TNB and their colons were scored according to occurence of ulcers and inflammation. The number of animals in each group was at least 8. 5-ASA (5-aminosalicylic acid), a clinically used drug for the treatment of IBD was used as a reference compound.

[1] = dose 30 mg/kg rectally 1 h prior and 24, 48, 72 and 95 h after TNB

In the case of “3-[3-(4-Methoxyphenyl)propenylene]-2,4-pentanedione [Example 11]”, the “% inhibition against control” value [1] is reported as 32%.
For “3-[(3,5-Dinitro-4-hydroxyphenyl)methylene]-2,4-pentanedione. [Example 9]”, the “% inhibition against control” value [1] was 40%.
For “3-[(5-Nitrothienyl)methylene]-2,4-pentanedione [Example 13]”, the “% inhibition against control” value [1] was 58%.
Nc1ccc(O)c(C(=O)O)c1 [5-ASA, 5-aminosalicylic acid, reference compound] showed an inhibition in vivo at 100 mg/kg (Rattus norvegicus, dose 100 mg/kg rectally 1 h prior and 24, 48, 72 and 95 h after TNB, read-out: % inhibition against control) of 24%.
CC(=O)C(=Cc1ccc(C(=O)NCCc2ccccc2)cc1)C(C)=O [Test compound 9, 3-[(4-(N-phenethyl)carboxamido-phenyl)methylene]-2,4-pentanedione] was tested, and the inhibition in vivo at 10 mg/kg (Rattus norvegicus, dose 10 mg/kg rectally 1 h prior and 24, 48, 72 and 95 h after TNB, read-out: % inhibition against control) was 60% and the inhibition in vivo at 30 mg/kg (Rattus norvegicus, dose 30 mg/kg rectally 1 h prior and 24, 48, 72 and 95 h after TNB, read-out: % inhibition against control) was 48%.
